Test results as given in publication PMC5218480 (PLoS ONE, 2017).

Tested on: MV-4-11 cells
Test: Gene expression microarray analysis (Affymetrix PrimeView) and GSEA
Format: cell-based, human
Parameters: RFU PODN (11730768_x_at) / Fold change /veh PODN (11730768_x_at) / RFU LINC00158 (11744669_a_at) / Fold change /veh LINC00158 (11744669_a_at) / RFU DUSP10 (11751237_a_at) / Fold change /veh DUSP10 (11751237_a_at) / RFU ID3 (11757404_x_at) / Fold change /veh ID3 (11757404_x_at) / RFU PLEKHG5 (11737974_s_at) / Fold change /veh PLEKHG5 (11737974_s_at) / RFU LRRC4B (11730491_at) / Fold change /veh LRRC4B (11730491_at) / RFU GIMAP4 (11747438_a_at) / Fold change /veh GIMAP4 (11747438_a_at) / RFU KRT8 (11758183_x_at) / Fold change /veh KRT8 (11758183_x_at) / RFU CNN1 (11734310_a_at) / Fold change /veh CNN1 (11734310_a_at) / RFU VPS37D (11726825_at) / Fold change /veh VPS37D (11726825_at) / RFU C10orf10 (11716522_x_at) / Fold change /veh C10orf10 (11716522_x_at) / RFU KIR2DL2 /// KIR2DL4 /// KIR2DL5A /// KIR2DL5B /// KIR2DS1 /// KIR2DS2 /// KIR2DS3 /// KIR2DS4 /// KIR3DL3 /// KIR3DL3 /// KIR3DS1 (11738374_at) / Fold change /veh KIR2DL2 /// KIR2DL4 /// KIR2DL5A /// KIR2DL5B /// KIR2DS1 /// KIR2DS2 /// KIR2DS3 /// KIR2DS4 /// KIR3DL3 /// KIR3DL3 /// KIR3DS1 (11738374_at) / RFU C1QL1 (11718748_at) / Fold change /veh C1QL1 (11718748_at) / RFU TMPRSS4 (11747572_a_at) / Fold change /veh TMPRSS4 (11747572_a_at) / RFU HAMP (11756126_x_at) / Fold change /veh HAMP (11756126_x_at) / RFU RNFT2 (11725882_a_at) / Fold change /veh RNFT2 (11725882_a_at) / RFU NR4A2 (11747474_a_at) / Fold change /veh NR4A2 (11747474_a_at) / RFU ABCC12 (11746883_a_at) / Fold change /veh ABCC12 (11746883_a_at) / RFU TMEM136 (11760407_x_at) / Fold change /veh TMEM136 (11760407_x_at) / RFU CLDN22 /// WWC2 (11732394_at) / Fold change /veh CLDN22 /// WWC2 (11732394_at) / RFU HLA-DPB1 (11760878_x_at) / Fold change /veh HLA-DPB1 (11760878_x_at) / RFU SPINT1 (11716480_a_at) / Fold change /veh SPINT1 (11716480_a_at) / RFU GAP43 (11754022_s_at) / Fold change /veh GAP43 (11754022_s_at) / RFU A4GNT (11735810_at) / Fold change /veh A4GNT (11735810_at) / RFU PRB3 (11715151_x_at) / Fold change /veh PRB3 (11715151_x_at) / RFU TUBB4B (11761932_at) / Fold change /veh TUBB4B (11761932_at) / RFU CAPN14 (11732068_a_at) / Fold change /veh CAPN14 (11732068_a_at) / RFU TMCC2 (11721928_a_at) / Fold change /veh TMCC2 (11721928_a_at) / RFU IRGQ (11745062_a_at) / Fold change /veh IRGQ (11745062_a_at) / RFU FAM174B (11720279_a_at) / Fold change /veh FAM174B (11720279_a_at) / RFU TMPRSS4 (11748680_a_at) / Fold change /veh TMPRSS4 (11748680_a_at) / RFU FAM212B (11763350_a_at) / Fold change /veh FAM212B (11763350_a_at) / RFU PLEKHG5 (11743358_a_at) / Fold change /veh PLEKHG5 (11743358_a_at) / RFU ZSCAN30 (11745921_a_at) / Fold change /veh ZSCAN30 (11745921_a_at) / RFU CMKLR1 (11741424_a_at) / Fold change /veh CMKLR1 (11741424_a_at) / RFU LOC101060620 /// MAPK8IP1 (11723275_at) / Fold change /veh LOC101060620 /// MAPK8IP1 (11723275_at) / RFU SPTSSB (11747773_x_at) / Fold change /veh SPTSSB (11747773_x_at) / RFU PRSS12 (11739890_at) / Fold change /veh PRSS12 (11739890_at) / RFU BIN1 (11741810_x_at) / Fold change /veh BIN1 (11741810_x_at) / RFU WNT11 (11732464_a_at) / Fold change /veh WNT11 (11732464_a_at) / RFU C10orf10 (11716521_a_at) / Fold change /veh C10orf10 (11716521_a_at) / RFU C5orf56 (11738089_at) / Fold change /veh C5orf56 (11738089_at) / RFU CYB561 (11721691_x_at) / Fold change /veh CYB561 (11721691_x_at) / RFU ANKRD19P (11752326_a_at) / Fold change /veh ANKRD19P (11752326_a_at) / RFU OR2T12 /// OR2T33 /// OR2T8 (11738714_s_at) / Fold change /veh OR2T12 /// OR2T33 /// OR2T8 (11738714_s_at) / RFU VCAN (11748164_a_at) / Fold change /veh VCAN (11748164_a_at) / RFU JSRP1 (11732532_at) / Fold change /veh JSRP1 (11732532_at) / RFU KRTAP10-11 (11738290_x_at) / Fold change /veh KRTAP10-11 (11738290_x_at) / RFU MYO3A (11730013_a_at) / Fold change /veh MYO3A (11730013_a_at) / RFU EBF3 (11725865_a_at) / Fold change /veh EBF3 (11725865_a_at) / RFU CAMK2N1 (11719241_x_at) / Fold change /veh CAMK2N1 (11719241_x_at) / RFU C5orf56 (11738088_a_at) / Fold change /veh C5orf56 (11738088_a_at) / RFU OLFML3 (11715873_a_at) / Fold change /veh OLFML3 (11715873_a_at) / RFU LOC100653217 /// NTM (11731650_a_at) / Fold change /veh LOC100653217 /// NTM (11731650_a_at) / RFU MAPK11 (11762145_a_at) / Fold change /veh MAPK11 (11762145_a_at) / RFU FIZ1 (11724087_x_at) / Fold change /veh FIZ1 (11724087_x_at) / RFU OASL (11726364_x_at) / Fold change /veh OASL (11726364_x_at) / RFU SOX15 (11748057_x_at) / Fold change /veh SOX15 (11748057_x_at) / RFU CD79A (11719716_a_at) / Fold change /veh CD79A (11719716_a_at) / RFU HIST1H1D (11736915_at) / Fold change /veh HIST1H1D (11736915_at) / RFU CASKIN2 (11723855_a_at) / Fold change /veh CASKIN2 (11723855_a_at) / RFU LOC730098 (11760151_x_at) / Fold change /veh LOC730098 (11760151_x_at) / RFU OR4N2 (11742367_at) / Fold change /veh OR4N2 (11742367_at) / RFU PRRT2 (11749266_a_at) / Fold change /veh PRRT2 (11749266_a_at) / RFU SNX32 (11753110_a_at) / Fold change /veh SNX32 (11753110_a_at) / RFU CDHR5 (11726645_a_at) / Fold change /veh CDHR5 (11726645_a_at) / RFU RCAN1 (11760418_a_at) / Fold change /veh RCAN1 (11760418_a_at) / RFU FAM167A (11723789_a_at) / Fold change /veh FAM167A (11723789_a_at) / RFU FAM26E (11764081_at) / Fold change /veh FAM26E (11764081_at) / RFU ISYNA1 (11749810_s_at) / Fold change /veh ISYNA1 (11749810_s_at) / RFU ACY1 (11761880_at) / Fold change /veh ACY1 (11761880_at) / RFU 11764098_at / Fold change /veh 11764098_at / RFU SAMD14 (11745864_x_at) / Fold change /veh SAMD14 (11745864_x_at) / RFU NPB (11741838_a_at) / Fold change /veh NPB (11741838_a_at) / RFU TMPRSS6 (11731388_a_at) / Fold change /veh TMPRSS6 (11731388_a_at) / RFU KRTAP10-2 (11738614_at) / Fold change /veh KRTAP10-2 (11738614_at) / RFU ARHGAP8 /// PRR5-ARHGAP8 (11727945_x_at) / Fold change /veh ARHGAP8 /// PRR5-ARHGAP8 (11727945_x_at) / RFU KRTAP5-7 /// NADSYN1 (11734609_at) / Fold change /veh KRTAP5-7 /// NADSYN1 (11734609_at) / RFU RASL12 (11751679_a_at) / Fold change /veh RASL12 (11751679_a_at) / RFU CDKN2B (11736163_a_at) / Fold change /veh CDKN2B (11736163_a_at) / RFU PRF1 (11729649_at) / Fold change /veh PRF1 (11729649_at) / RFU, ZNF638 /// ZNF638-IT1 / Fold change vs veh, ZNF638 /// ZNF638-IT1 / RFU, PANK3 / Fold change vs veh, PANK3 / RFU, SH3YL1 / Fold change vs veh, SH3YL1 / RFU, ZEB2 / Fold change vs veh, ZEB2 / RFU, NRIP1 / Fold change vs veh, NRIP1 / RFU, PTTG1IP / Fold change vs veh, PTTG1IP / RFU, CAPN2 / Fold change vs veh, CAPN2 / RFU, MED14 / Fold change vs veh, MED14 / RFU, SNORA58 / Fold change vs veh, SNORA58 / RFU, C1orf63 / Fold change vs veh, C1orf63 / RFU, LRRFIP1 / Fold change vs veh, LRRFIP1 / RFU, NDUFAF7 / Fold change vs veh, NDUFAF7 / RFU, SLC12A2 / Fold change vs veh, SLC12A2 / RFU, IBTK / Fold change vs veh, IBTK / RFU, ESF1 / Fold change vs veh, ESF1 / Fold change vs veh, TMEM50B / RFU, TAOK1 / Fold change vs veh, TAOK1 / RFU, ACBD3 / Fold change vs veh, ACBD3 / RFU, TMA16 / Fold change vs veh, TMA16 / RFU, RWDD3 / Fold change vs veh, RWDD3 / RFU, BCAT1 / Fold change vs veh, BCAT1 / RFU, EDEM3 / Fold change vs veh, EDEM3 / RFU, TMEM33 / Fold change vs veh, TMEM33 / RFU, WDR75 / Fold change vs veh, WDR75 / RFU, AHCTF1 / Fold change vs veh, AHCTF1 / RFU, TFRC / Fold change vs veh, TFRC / RFU, ZDHHC17 / Fold change vs veh, ZDHHC17 / RFU, NOM1 / Fold change vs veh, NOM1 / RFU, ARL8B / Fold change vs veh, ARL8B / RFU, ZBTB11 / Fold change vs veh, ZBTB11 / RFU, TAMM41 / Fold change vs veh, TAMM41 / RFU, KIAA1704 /// LOC100996395 / Fold change vs veh, KIAA1704 /// LOC100996395 / RFU, ING1 / Fold change vs veh, ING1 / RFU, TRMT61B / Fold change vs veh, TRMT61B / RFU, FUBP3 / Fold change vs veh, FUBP3 / RFU, TP53 / Fold change vs veh, TP53 / RFU, TNKS2 / Fold change vs veh, TNKS2 / RFU, ZFP14 / Fold change vs veh, ZFP14 / RFU, ACTR2 / Fold change vs veh, ACTR2 / RFU, PPP3R1 / Fold change vs veh, PPP3R1 / RFU, PIK3R1 / Fold change vs veh, PIK3R1 / RFU, HNRNPA1 / Fold change vs veh, HNRNPA1 / RFU, RNF170 / Fold change vs veh, RNF170 / RFU, ZNF28 / Fold change vs veh, ZNF28 / RFU, RNGTT / Fold change vs veh, RNGTT / RFU, OGT / Fold change vs veh, OGT / RFU, BRD1 / Fold change vs veh, BRD1 / RFU, MARS / Fold change vs veh, MARS / RFU, ZNF655 / Fold change vs veh, ZNF655 / RFU, FAHD1 / Fold change vs veh, FAHD1 / RFU, BDP1 / Fold change vs veh, BDP1 / RFU, LRRCC1 / Fold change vs veh, LRRCC1 / RFU, ARID1A / Fold change vs veh, ARID1A / RFU, ZNF146 / Fold change vs veh, ZNF146 / RFU, ZNF330 / Fold change vs veh, ZNF330 / RFU, GPN3 / Fold change vs veh, GPN3 / RFU, C9orf123 / Fold change vs veh, C9orf123 / RFU, N4BP2L2 / Fold change vs veh, N4BP2L2 / RFU, ARFIP1 / Fold change vs veh, ARFIP1 / RFU, FAM179B / Fold change vs veh, FAM179B / RFU, BCL10 / Fold change vs veh, BCL10 / RFU, UHRF1BP1L / Fold change vs veh, UHRF1BP1L / RFU, BET1 / Fold change vs veh, BET1 / RFU, CNOT2 / Fold change vs veh, CNOT2 / RFU, ZNF268 / Fold change vs veh, ZNF268 / Fold change vs veh, ZNF507 / RFU, DGCR2 / Fold change vs veh, DGCR2 / RFU, WDSUB1 / Fold change vs veh, WDSUB1 / Fold change vs veh, HSP90B1 /// MIR3652 / RFU, ADSS / Fold change vs veh, ADSS / RFU, GK / Fold change vs veh, GK / RFU, ZNF148 / Fold change vs veh, ZNF148 / RFU, TAF9 / Fold change vs veh, TAF9 / RFU, SLC1A5 / Fold change vs veh, SLC1A5 / RFU, SLMO2 / Fold change vs veh, SLMO2 / RFU, ABCC4 / Fold change vs veh, ABCC4 / RFU, LOC101060439 /// RAP1B / Fold change vs veh, LOC101060439 /// RAP1B / RFU, RFX7 / Fold change vs veh, RFX7 / RFU, GTPBP10 / Fold change vs veh, GTPBP10 / RFU, CNEP1R1 / Fold change vs veh, CNEP1R1 / RFU, BIVM-ERCC5 /// ERCC5 / Fold change vs veh, BIVM-ERCC5 /// ERCC5 / RFU, ILF3 / Fold change vs veh, ILF3 / RFU 11762660_at / Fold change /veh 11762660_at / RFU VCAN (11757783_s_at) / Fold change /veh VCAN (11757783_s_at) / RFU DDX43 (11728927_at) / Fold change /veh DDX43 (11728927_at) / RFU KRT8 (11758188_x_at) / Fold change /veh KRT8 (11758188_x_at) / RFU NKD1 (11759106_at) / Fold change /veh NKD1 (11759106_at) / RFU SRD5A1 (11742802_a_at) / Fold change /veh SRD5A1 (11742802_a_at) / RFU TPSAB1 /// TPSB2 (11721975_s_at) / Fold change /veh TPSAB1 /// TPSB2 (11721975_s_at) / RFU GSTM3 (11746129_a_at) / Fold change /veh GSTM3 (11746129_a_at) / RFU IL23R (11737362_x_at) / Fold change /veh IL23R (11737362_x_at) / RFU TMEM51 (11727254_a_at) / Fold change /veh TMEM51 (11727254_a_at) / RFU PIWIL2 (11732686_x_at) / Fold change /veh PIWIL2 (11732686_x_at) / RFU ORM1 (11744905_x_at) / Fold change /veh ORM1 (11744905_x_at) / RFU CCDC152 (11743942_at) / Fold change /veh CCDC152 (11743942_at) / RFU ECM1 (11717891_a_at) / Fold change /veh ECM1 (11717891_a_at) / RFU IL23R (11748794_a_at) / Fold change /veh IL23R (11748794_a_at) / RFU TNFAIP8L3 (11732012_x_at) / Fold change /veh TNFAIP8L3 (11732012_x_at) / RFU MBOAT4 (11741988_at) / Fold change /veh MBOAT4 (11741988_at) / RFU 11764193_at / Fold change /veh 11764193_at / RFU TMEM53 (11763286_at) / Fold change /veh TMEM53 (11763286_at) / RFU MAGEB2 (11727129_at) / Fold change /veh MAGEB2 (11727129_at) / RFU TMEM200A (11744735_a_at) / Fold change /veh TMEM200A (11744735_a_at) / RFU CCDC152 (11751479_a_at) / Fold change /veh CCDC152 (11751479_a_at) / RFU FAM211A (11726209_a_at) / Fold change /veh FAM211A (11726209_a_at) / RFU RGS16 (11746705_a_at) / Fold change /veh RGS16 (11746705_a_at) / RFU VCAN (11755009_s_at) / Fold change /veh VCAN (11755009_s_at) / RFU RHOB (11743442_s_at) / Fold change /veh RHOB (11743442_s_at) / RFU RGS16 (11720943_a_at) / Fold change /veh RGS16 (11720943_a_at) / RFU RGS16 (11720944_at) / Fold change /veh RGS16 (11720944_at) / RFU, VPS4B / Fold change vs veh, VPS4B / RFU, CREB1 / Fold change vs veh, CREB1 / RFU, DNAJC13 / Fold change vs veh, DNAJC13 / RFU, GNAQ / Fold change vs veh, GNAQ / RFU, CDK5R1 / Fold change vs veh, CDK5R1 / RFU, ZRANB3 / Fold change vs veh, ZRANB3 / RFU, CUL4A / Fold change vs veh, CUL4A / RFU, CCNY / Fold change vs veh, CCNY / RFU, UFL1 / Fold change vs veh, UFL1 / RFU, COG3 / Fold change vs veh, COG3 / RFU, DIAPH2 / Fold change vs veh, DIAPH2 / RFU, SKA2 / Fold change vs veh, SKA2 / RFU, AFF3 / Fold change vs veh, AFF3 / RFU, LMF1 / Fold change vs veh, LMF1 / RFU, IPO11 / Fold change vs veh, IPO11 / RFU, DFFB / Fold change vs veh, DFFB / RFU, FOXP1 / Fold change vs veh, FOXP1 / RFU, CARD8 / Fold change vs veh, CARD8 / RFU, STRN3 / Fold change vs veh, STRN3 / RFU, ADK / Fold change vs veh, ADK / RFU, RASSF2 / Fold change vs veh, RASSF2 / RFU, WIPF1 / Fold change vs veh, WIPF1 / RFU, LARP1B / Fold change vs veh, LARP1B / RFU, RASA1 / Fold change vs veh, RASA1 / RFU, RB1 / Fold change vs veh, RB1 / RFU, PPFIA1 / Fold change vs veh, PPFIA1 / RFU, MAT2A / Fold change vs veh, MAT2A / RFU, CCT5 / Fold change vs veh, CCT5 / RFU, WDR92 / Fold change vs veh, WDR92 / RFU, CUX1 / Fold change vs veh, CUX1 / RFU, TTC7A / Fold change vs veh, TTC7A / RFU, TMEM135 / Fold change vs veh, TMEM135 / RFU, DEPTOR / Fold change vs veh, DEPTOR / RFU, CPM / Fold change vs veh, CPM / RFU, DNAJB6 / Fold change vs veh, DNAJB6 / RFU, CACNA2D3 / Fold change vs veh, CACNA2D3 / RFU, DTX4 / Fold change vs veh, DTX4 / RFU, TFCP2 / Fold change vs veh, TFCP2 / RFU, GMCL1 /// GMCL1P1 / Fold change vs veh, GMCL1 /// GMCL1P1 / RFU, AEBP2 / Fold change vs veh, AEBP2 / RFU, SNHG1 /// SNORD22 /// SNORD25 /// SNORD26 /// SNORD27 /// SNORD28 /// SNORD29 /// SNORD31 / Fold change vs veh, SNHG1 /// SNORD22 /// SNORD25 /// SNORD26 /// SNORD27 /// SNORD28 /// SNORD29 /// SNORD31 / Fold change (Aza/veh), C12orf56 (ProbeSet 11735607_a_at) / Fold change (ACY-1035/veh), C12orf56 (ProbeSet 11735607_a_at) / Fold change (Aza/veh), FGFR1OP (ProbeSet 11751329_s_at) / Fold change (ACY-1035/veh), FGFR1OP (ProbeSet 11751329_s_at) / Fold change (Aza/veh), VPS36 (ProbeSet 11739960_a_at) / Fold change (ACY-1035/veh), VPS36 (ProbeSet 11739960_a_at) / RFU SYPL1 (11715823_x_at) / Fold change /veh SYPL1 (11715823_x_at) / RFU IGFBP7 (11715501_s_at) / Fold change /veh IGFBP7 (11715501_s_at) / RFU REEP3 (11722064_at) / Fold change /veh REEP3 (11722064_at) / RFU IGLL1 (11728026_x_at) / Fold change /veh IGLL1 (11728026_x_at): dose or concentration left out as unconfirmed
Conditions: ProbeSet 11752001_a_at; LIST D

In the case of `Nc1ncn([C@@H]2O[C@H](CO)[C@@H](O)[C@H]2O)c(=O)n1` [azacitidine], the “RFU, CUL4A” value is reported as 406.78 RFU.
